From article PMC9281306 (ACS Omega, 2022)
Where two headings read alike, the source gives them in different places. Where a SMILES comes first, the peptide text is derived from it. [ ]: non-standard residue; d: D form.

Columns and labels:
[1] = tested on: Mabs ATCC 19977S smooth morphotype; test: Mabs microdilution antimicrobial assay with purified peptides; assay type: cell-based, Mycobacterium abscessus; conditions: purified peptide, MHB with EDTA 100 μM, 96 h, 37 °C, OD600, three independent experiments
[2] = tested on: Mabs ATCC 19977R rough morphotype; test: as above; assay type: cell-based, Mycobacterium abscessus; conditions: purified peptide, MHB with EDTA 100 μM, 96 h, 37 °C, OD600, three independent experiments
[3] = tested on: P. aeruginosa (ATCC 27853); test: Cross-inhibitory activity assay; assay type: cell-based, Pseudomonas aeruginosa; conditions: MHB, 24 h, 37 °C; EDTA not given
MRSA USA300 = test: Cross-inhibitory activity assay; assay type: cell-based, Staphylococcus aureus; conditions: MHB, 24 h, 37 °C; EDTA not given
E. coli (ATCC 25922) = test: Cross-inhibitory activity assay; assay type: cell-based, Escherichia coli; conditions: MHB, 24 h, 37 °C; EDTA not given
[4] = tested on: human red blood cell (hRBC); test: hRBC hemolytic assay; assay type: cell-based
[5] = tested on: E. coli urinary tract infection clinical isolates; conditions: MIC in MHB, 22 h, 37 °C, triplicate

CC(C)C[C@@H](NC(=O)[C@@H](C)NC(=O)[C@@H](CCCCN)NC(=O)[C@@H](CCCNC(=N)N)NC(=O)[C@H](Cc1ccccc1)NC(=O)[C@H](CCC(N)=O)NC(=O)[C@H](CC(N)=O)NC(=O)[C@@H](NC(=O)[C@@H](CCCCN)NC(=O)[C@@H](CCCNC(=N)N)NC(=O)[C@H](C)NC(=O)[C@@H](CCCCN)NC(=O)[C@H](CO)NC(=O)[C@@H](CC(C)C)NC(=O)CNC(=O)[C@H](Cc1ccc(O)cc1)NC(=O)[C@H](N)CCCNC(=N)N)C(C)C)C(N)=O [ASU2009] (H-[dR]YG[dL]S[dK]A[dR][dK]VNQF[dR][dK][dA][dL]-NH2)
Mabs ATCC19977S MIC [1]: 256 µM
Mabs ATCC19977R MIC [2]: 256 µM

CC(C)C[C@@H](NC(=O)[C@@H](C)NC(=O)[C@H](CO)NC(=O)[C@@H](CCCCN)NC(=O)[C@@H](CCCNC(=N)N)NC(=O)[C@@H](CCCNC(=N)N)NC(=O)[C@H](Cc1ccccc1)NC(=O)[C@@H](CC(C)C)NC(=O)[C@H](CC(N)=O)NC(=O)[C@H](Cc1c[nH]cn1)NC(=O)[C@@H]1CCCN1C(=O)[C@H](C)NC(=O)[C@H](CO)NC(=O)[C@@H]1CCCN1C(=O)CNC(=O)[C@@H](NC(=O)[C@H](N)CCCNC(=N)N)C(C)C)C(N)=O [ASU2019] (H-[dR]VGPSAPHN[dL]F[dR][dR][dK]S[dA][dL]-NH2)
Mabs ATCC19977S MIC [1]: 256 µM
Mabs ATCC19977R MIC [2]: 256 µM

CC(C)C[C@@H](NC(=O)CNC(=O)[C@@H](Cc1c[nH]c2ccccc12)NC(=O)[C@@H](CCCNC(=N)N)NC(=O)[C@@H](N)CCC(N)=O)C(=O)N[C@@H](CO)C(=O)N[C@H](CC(C)C)C(=O)N[C@@H](C)C(=O)N1CCC[C@H]1C(=O)N[C@@H](Cc1ccc(O)cc1)C(=O)N[C@H](CCCCN)C(=O)N[C@@H](CC(N)=O)C(=O)N[C@@H](Cc1ccccc1)C(=O)N[C@H](CCCNC(=N)N)C(=O)N[C@H](CCCNC(=N)N)C(=O)N[C@H](CC(C)C)C(=O)N[C@@H](CO)C(N)=O [ASU2056] (H-Q[dR][dW]G[dL]S[dL]APY[dK]NF[dR][dR][dL]S-NH2)
P. aeruginosa ATCC 27853 MIC [3]: >32 µM
Mabs ATCC19977S MIC [1]: 32 µM
MRSA USA300 MIC (MRSA USA300): >32 µM
Mabs ATCC19977R MIC [2]: >256 µM
E. coli ATCC 25922 MIC (E. coli (ATCC 25922)): 16 µM

CC(C)C[C@@H](NC(=O)[C@@H](C)NC(=O)CNC(=O)[C@@H](CC(C)C)NC(=O)[C@@H](CCCCN)NC(=O)[C@@H](CCCNC(=N)N)NC(=O)[C@@H](CCCNC(=N)N)NC(=O)[C@H](CC(N)=O)NC(=O)[C@H](Cc1ccc(O)cc1)NC(=O)[C@@H](CCCNC(=N)N)NC(=O)[C@H](C)NC(=O)[C@H](CO)NC(=O)[C@@H](CCCNC(=N)N)NC(=O)CNC(=O)[C@@H](N)Cc1ccc(O)cc1)C(=O)N[C@@H](CO)C(=O)NCC(N)=O [ASU2059] (H-YG[dR]SA[dR]YN[dR][dR][dK][dL]G[dA][dL]SG-NH2)
Mabs ATCC19977S MIC [1]: 256 µM
Mabs ATCC19977R MIC [2]: 256 µM

CC(C)C[C@@H](NC(=O)CNC(=O)[C@H](CO)NC(=O)[C@@H](CCCCN)NC(=O)[C@@H](CCCNC(=N)N)NC(=O)[C@@H](Cc1c[nH]c2ccccc12)NC(=O)[C@@H](CCCNC(=N)N)NC(=O)[C@H](Cc1ccccc1)NC(=O)[C@H](CC(N)=O)NC(=O)[C@H](Cc1ccc(O)cc1)NC(=O)[C@@H](CCCNC(=N)N)NC(=O)[C@H](C)NC(=O)[C@H](CO)NC(=O)[C@@H](Cc1c[nH]c2ccccc12)NC(=O)[C@@H](CCCNC(=N)N)NC(=O)CNC(=O)[C@@H](N)C(C)C)C(N)=O [ASU2060] (H-VG[dR][dW]SA[dR]YNF[dR][dW][dR][dK]SG[dL]-NH2)
P. aeruginosa ATCC 27853 MIC [3]: 8 µM
hRBC hemolysis ([4]; 32 µM): less than 1%
Mabs ATCC19977S MIC [1]: 8 µM
MRSA USA300 MIC (MRSA USA300): 8 µM
Mabs ATCC19977R MIC [2]: 256 µM
E. coli ATCC 25922 MIC (E. coli (ATCC 25922)): 4 µM

CC1(C)S[C@@H]2[C@H](NC(=O)[C@H](N)c3ccccc3)C(=O)N2[C@H]1C(=O)O [Ampicillin]
Ampicillin susceptibility ([5]; E. coli clinical isolate 23): susceptible
Ampicillin susceptibility ([5]; E. coli clinical isolate 36): resistant
Ampicillin susceptibility ([5]; E. coli clinical isolate 97): resistant
Ampicillin susceptibility ([5]; E. coli clinical isolate 98): resistant

Triton X-100 [reference compound]
hRBC lysis by positive control ([4]; 1%, 4% hRBC in saline, 37 °C, OD475): complete hRBC lysis
